# Assay results reported in patent US20130310256A1, “HERBICIDAL COMPOSITIONS COMPRISING 4-AMINO-3-CHLORO-5-FLUORO-6-(4-CHLORO-2-FLUORO-3-METHOXYPHENYL) PYRIDINE-2-CARBOXYLIC ACID OR A DERIVATIVE THEREOF AND VLCFA AND LIPID SYNTHESIS INHIBITING HERBICIDES” (DOW AGROSCIENCES LLC, priority 2008, published 2013).
# Where “and” joins values, the source holds several entries; their conditions need not be identical. Identical values can stand only once.
# Key:
# [1] = tested on: CYPIR; experiment: Example I: postemergence foliar-applied weed control, greenhouse; format: in vivo, Cyperus iria L. (rice flatsedge)
# Summary of the method: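 Plants grown in loam/sandy loam–calcareous grit soil (80:20) in greenhouse, 14 hr photoperiod, about 29° C. day/26° C. night, treated postemergence at first to fourth true leaf stage. Foliar spray at 187 L/ha with 1.25% (v/v) crop oil concentrate; Compound A dosed on acid equivalent basis, partners on active ingredient basis.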
# [2] = tested on: DIGSA; experiment: as above; format: in vivo, Digitaria sanguinalis (L.) Scop. (large crabgrass); conditions: 20 DAA
# Excerpt: Seeds or nutlets of the desired test plant species were planted in a soil matrix prepared by mixing a loam or sandy loam soil (e.g., 28.6 percent silt, 18.8 percent clay, and 52.6 percent sand, with a pH of about 5.8 and an organic matter content of about 1.8 percent) and calcareous grit in an 80 to 20 ratio. The soil matrix was contained in plastic pots with a volume of 1 quart and a surface area of 83.6 square centimeters (cm^2). When required to ensure good germination and healthy plants, a fungicide treatment and/or other chemical or physical treatment was applied. The plants were grown for 8-22 days in a greenhouse with an approximate 14 hr photoperiod which was maintained at about 29° C. during the day and 26° C. during the night. Nutrients (Peters Excel® 15-5-15 5-Ca 2-Mg and iron chelate) were applied in the irrigation solution as needed and water was added on a regular basis. Supplemental lighting was provided with overhead metal halide 1000-Watt lamps as necessary. The plants were employed for testing when they reached the first through fourth true leaf stage.
# Treatments consisted of the acid or esters of 4-amino-3-chloro-5-fluoro-6-(4-chloro-2-fluoro-3-methoxy-phenyl)pyridine-2-carboxylic acid (Compound A), each formulated as an SC (suspension concentrate), and various herbicidal components alone and in combination. Forms of compound A were applied on an acid equivalent basis.
# Other herbicidal components were applied on an active ingredient basis and included very long chain fatty acid (VLCFA) synthesis-inhibiting and fatty acid/lipid synthesis-inhibiting herbicides acetochlor (technical grade material), acetochlor+dichlormid formulated as Topnotch®, pretilachlor (technical grade material), butachlor formulated as Butachlor EC, fentrazamide formulated as Fentrazamide EC, thiobencarb formulated as Bolero® 8EC, cafenstrole formulated as Himeadow® WP or Lapost® Flowable, benfuresate formulated as Full Shot®, dimethenamid-P formulated as Outlook®, indanofan (technical grade material), flufenacet formulated as Define® DF, mefenacet (technical grade material), S-metolachlor formulated as Dual® II Magnum, pethoxamid formulated as Successor® 600, and pyroxasulfone (technical grade material).
# Treatment requirements were calculated based upon the rates being tested, the concentration of active ingredient or acid equivalent in the formulation, and a 12 mL application volume at a rate of 187 L/ha.
# For treatments comprised of formulated compounds, measured amounts of compounds were placed individually in 25 mL glass vials and diluted in a volume of 1.25% (v/v) Agri-Dex® crop oil concentrated to obtain 12× stock solutions. […] Application solutions were prepared by adding an appropriate amount of each stock solution (e.g., 1 mL) and diluted to the appropriate final concentrations with the addition of 10 mL of an aqueous mixture of 1.25% (v/v) crop oil concentrate so that the final spray solutions contained 1.25+/−0.05% (v/v) crop oil concentrate.
# For treatments comprised of technical compounds, weighed amounts can be placed individually in 25 mL glass vials and dissolved in a volume of 97:3 v/v acetone/DMSO to obtain 12× stock solutions. […] Application solutions can be prepared by adding an appropriate amount of each stock solution (e.g., 1 mL) and diluted to the appropriate final concentrations with the addition of 10 mL of an aqueous mixture of 1.5% (v/v) crop oil concentrate so that the final spray solutions contain 1.25% (v/v) crop oil concentrate. When technical materials are used, the concentrated stock solutions can be added to the spray solutions so that the final acetone and DMSO concentrations of the application solutions are […], respectively. […]
smiles,measurement,setting,value
"CCS(=O)(=O)Oc1ccc2c(c1)C(C)(C)CO2 [Benfuresate, 2,3-dihydro-3,3-dimethyl-5-benzofuranyl ethanesulfonate]",Visual Weed Control (%) - 22 DAA CYPIR Obs,"[1]; 150 gai/ha, foliar",0%
same,Visual Weed Control (%) - 22 DAA CYPIR Obs,"[1]; 300 gai/ha, foliar",10%
"CCCOCCN(C(=O)CCl)c1c(CC)cccc1CC [Pretilachlor, 2-chloro-N-(2,6-diethylphenyl)-N-(2-propoxyethyl)acetamide]",Visual Weed Control Obs,[2]; 37.5 gai/ha,0%
same,Visual Weed Control Obs,[2]; 75 gai/ha,0%
same,Visual Weed Control Obs,[2]; 150 gai/ha,0%
same,Visual Weed Control Obs,"[1]; 20 DAA, 37.5 gai/ha",0%
same,Visual Weed Control Obs,"[1]; 20 DAA, 75 gai/ha",0%
same,Visual Weed Control Obs,"[1]; 20 DAA, 150 gai/ha",0%
"COc1c(Cl)ccc(-c2nc(C(=O)O)c(Cl)c(N)c2F)c1F [Compound A Acid, 4-amino-3-chloro-6-(4-chloro-2-fluoro-3-methoxyphenyl)-5-fluoropyridine-2-carboxylic acid]",Visual Weed Control Obs,[2]; 4.38 gae/ha,30%
same,Visual Weed Control Obs,[2]; 17.5 gae/ha,40%
same,Visual Weed Control (%) - 22 DAA CYPIR Obs,"[1]; 5.3 gae/ha, foliar",60%
same,Visual Weed Control Obs,"[1]; 20 DAA, 4.38 gae/ha",40%
same,Visual Weed Control Obs,"[1]; 21 DAA, 4.38 gae/ha",70%
"CCN(CC)C(=O)n1cnc(S(=O)(=O)c2c(C)cc(C)cc2C)n1 [Cafenstrole, N,N-diethyl-3-[(2,4,6-trimethylphenyl)sulfonyl]-1H-1,2,4-triazole-1-carboxamide]",Visual Weed Control Obs,"[1]; 21 DAA, 26.25 gai/ha Lapost Flowable",0%
same,Visual Weed Control Obs,"[1]; 21 DAA, 52.5 gai/ha Lapost Flowable",0%
same,Visual Weed Control Obs,"[1]; 21 DAA, 105 gai/ha Lapost Flowable",0%
"COc1c(Cl)ccc(-c2nc(C(=O)OCc3ccccc3)c(Cl)c(N)c2F)c1F [Compound A Benzyl Ester, benzyl ester of 4-amino-3-chloro-5-fluoro-6-(4-chloro-2-fluoro-3-methoxy-phenyl)pyridine-2-carboxylic acid]",Visual Weed Control Obs,[2]; 4.38 gae/ha,50% and 40%
same,Visual Weed Control Obs,[2]; 8.75 gae/ha,60% and 40% and 30%
same,Visual Weed Control Obs,[2]; 17.5 gae/ha,30%
same,Visual Weed Control (%) - 21 DAA CYPIR Obs,"[1]; 8 gae/ha, foliar",30%
same,Visual Weed Control (%) - 22 DAA CYPIR Obs,"[1]; 16 gae/ha, foliar",60%
same,Visual Weed Control Obs,"[1]; 20 DAA, 4.38 gae/ha",80%
